Measurements as given in ChEMBL document CHEMBL1201862, “PubChem BioAssay data set” (2004).
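Results reflect a 48-hour exposure of cells in 96-well plates to compound at five concentrations. GI50 = concentration required for 50% inhibition of growth.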 Active and inactive are the calls of the source. Cut-off read from the data, not from the text of the source: active = GI50 up to about 1.1 µM and inactive = higher.

Legend:
Assay in all cases: NCI tumour cell line growth inhibition, 48 h
SK-OV-3 = test system: SK-OV-3
PC-3 = test system: PC-3
SK-MEL-5 = test system: SK-MEL-5
UO-31 = test system: UO-31
LOX IMVI = test system: LOX IMVI
HOP-92 = test system: HOP-92
OVCAR-8 = test system: OVCAR-8
CAKI-1 = test system: CAKI-1
NCI-H522 = test system: NCI-H522
HCT-15 = test system: HCT-15
SK-MEL-28 = test system: SK-MEL-28
HL-60 = test system: HL-60
DU-145 = test system: DU-145
SR = test system: SR
NCI-H226 = test system: NCI-H226
SF-295 = test system: SF-295
RPMI-8226 = test system: RPMI-8226
786-0 = test system: 786-0
OVCAR-4 = test system: OVCAR-4
SF-539 = test system: SF-539

Row | SMILES | GI50 (SK-OV-3) | GI50 (PC-3) | GI50 (SK-MEL-5) | GI50 (UO-31) | GI50 (LOX IMVI) | GI50 (HOP-92) | GI50 (OVCAR-8) | GI50 (CAKI-1) | GI50 (NCI-H522) | GI50 (HCT-15) [µM] | GI50 (SK-MEL-28) | GI50 (HL-60) | GI50 (DU-145) | GI50 (SR) | GI50 (NCI-H226) | GI50 (SF-295) | GI50 (RPMI-8226) | GI50 (786-0) | GI50 (OVCAR-4) | GI50 (SF-539)
1 | O=C(c1ccccc1)n1c(Cc2ccccc2)nc2cc(C34CC5CC(CC(C5)C3)C4)ccc21 | 96.2 µM (inactive) | 49 µM (inactive) | 27 µM (inactive) | 35.2 µM (inactive) | 30.5 µM (inactive) | 24 µM (inactive) | 37.2 µM (inactive) | > 100 µM (inactive) | 37.3 µM (inactive) | 18.2 | 84.3 µM (inactive) | 33.7 µM (inactive) | 56.5 µM (inactive) | 39.6 µM (inactive) | 58.3 µM (inactive) | 52.2 µM (inactive) | 31.8 µM (inactive) | 61.9 µM (inactive) | > 100 µM (inactive) | –
2 | COc1cc(C2C3C=CC=C4CC=CC(=C43)C3CCC(=O)N32)cc(OC)c1OC (configuration not stated) | 64 µM (inactive) | 59 µM (inactive) | – | 48.9 µM (inactive) | > 100 µM (inactive) | 85.9 µM (inactive) | > 100 µM (inactive) | – | > 100 µM (inactive) | > 100 | > 100 µM (inactive) | 64.1 µM (inactive) | > 100 µM (inactive) | > 100 µM (inactive) | 0.224 µM (active) | > 100 µM (inactive) | > 100 µM (inactive) | > 100 µM (inactive) | – | > 100 µM (inactive)
3 | Cc1cc(Cl)nc(Nc2nc3ccccc3[nH]2)n1 | > 100 µM (inactive) | > 100 µM (inactive) | > 100 µM (inactive) | > 100 µM (inactive) | > 100 µM (inactive) | 21.8 µM (inactive) | > 100 µM (inactive) | – | 2.96 µM (inactive) | > 100 | > 100 µM (inactive) | > 100 µM (inactive) | > 100 µM (inactive) | 32.1 µM (inactive) | > 100 µM (inactive) | > 100 µM (inactive) | – | > 100 µM (inactive) | > 100 µM (inactive) | > 100 µM (inactive)
4 | C1=Cc2nccc3cc4c(c(c23)N1)OCO4 | 5.92 µM (inactive) | 11.6 µM (inactive) | – | 6.44 µM (inactive) | 8.61 µM (inactive) | 22.3 µM (inactive) | 3.93 µM (inactive) | 8.99 µM (inactive) | 2.42 µM (inactive) | 13.9 | 24 µM (inactive) | > 100 µM (inactive) | 6.15 µM (inactive) | 1.28 µM (inactive) | 11.4 µM (inactive) | 3.36 µM (inactive) | 4.53 µM (inactive) | 4.03 µM (inactive) | 7.45 µM (inactive) | –
